Here are results for three compounds from patent US11752125B2, “Anti-neuroinflammatory and protective compounds in Achillea fragrantissima” (THE STATE OF ISRAEL MINISTRY OF AGRICULTURE & RURAL …, priority 2013, dated 2023).

Data set [1] deals with IL-6. The data set is described as follows: IL-6 secretion from LPS-stimulated microglial cells (ELISA). It counts as cell-based, rat. Particulars: LPS 100 ng/mL, 24 h. The procedure:
2. Plate microglial cells (3.5×10^4 cells/well) on a 24-well tissue culture plate, in DMEM containing 10% FBS, 2 mM glutamine, 100 U/ml penicillin and 100 micrograms/mL streptomycin;
Microglial cells were treated with different concentrations of TTF, followed by stimulation with LPS (100 ng/mL). After 24 h, conditioned media were collected and tested for cytokine levels by ELISA. Cell viability was determined using the crystal violet assay (FIG. 9C). Values represent the means±SEM (n=4 for each treatment).
Background: ELISA stands for enzyme-linked immunosorbent assay.

In data set [2] the test system is astrocytes. As to the kind of experiment: Cellular antioxidant activity (ABAP peroxyl radicals) in astrocytes. The class given is cell-based. Particulars: for effect on ABAP-generated peroxyl radical (ROS) fluorescence: astrocytes, ABAP 0.6 mM. The procedure: In the cellular antioxidant activity (CAA) assay, cell viability was determined by a modification of the crystal violet assay (Kueng et al., 1989) as follows. At the end of cell treatments, cells were fixed with 150 μL of 5% (v/v) formaldehyde (in PBS) for 15 min at room temperature. Plates were washed by submersion in de-ionized water, dried and stained for 15 min with 150 μL of a 1% crystal violet solution. After careful aspiration of the crystal violet solution the plates were washed with de-ionized water, and dried prior to the solubilization of the bound dye with 150 μL of a 33% aqueous glacial acetic acid solution. The optical density of the plates was measured at 540 nm (with a 690 nm reference filter) in a microplate spectrophotometer.
Intracellular ROS production was detected using the non-fluorescent cell permeating compound, 2′7′-dichlorofluorescein diacetate (DCF-DA). DCF-DA is hydrolyzed by intracellular esterases and then oxidized by ROS to a fluorescent compound 2′-7′-DCF. Peroxyl radicals are generated by thermolysis of 2,2′-Azobis(amidinopropane) (ABAP) at physiological temperature. ABAP decomposes at approximately 1.36×10^−6s^−1 at 37° C., producing at most 1×10^12 radicals/mL/s (Bowry and Stocker, 1993; Niki et al., 1986; Thomas et al., 1997). Astrocytes (300,000 cells/well) were plated in DMEM containing 2% FBS, 8.4 mM HEPES, 2 mM glutamine, 100 U/mL penicillin and 100 μg/mL streptomycin, onto 24 well plates. In order to measure the ability of TTF to enter the cells and prevent the formation of dichlorofluorescein (DCF) by ABAP-generated peroxyl radicals, cells were incubated for 1 h with TTF. […] The fluorescence, which indicates ROS levels, was measured in a plate reader with excitation at 485 nm and emission at 520 nm.
2. […] Read “time 0” fluorescence (Ex: 485 nm and Em: 528 nm); 7. […] Read fluorescence at 3, 6, and 24 hr Ex: 485 nm and Em: 528 nm; 9. […]
Astrocytes were incubated with TTF or quercetin for 2 h. […] ABAP (0.6 mM) was added to the culture and the fluorescence intensity, representing ROS levels was measured. […]

The test system of data set [3] is microglial cells. As to the kind of experiment: Viability of LPS-activated microglial cells (MTT). The class given is cell-based, rat. Conditions: MTT 20 hr later. How it is done: Microglial cells were activated with LPS in the presence or absence of different concentrations of 3,5,4′-trihydroxy-6,7,3′-trimethoxyflavone. Cell viability was determined (using MTT) 20 hr later.

In data set [4] the test system is p38. As to the kind of experiment: H2O2-induced p38 phosphorylation in astrocytes (ELISA). Conditions: astrocytes preincubated 2 h, H2O2 175 μM 40 min. The class given is cell-based, rat. How it is done:
Astrocytes were treated with 175 μM of H2O2 for 40 min following preincubation with achillolide A for 2 h. The levels of phosphorylated and total MEK1 (FIG. 40A), phosphorylated and total ERK1/2 (FIG. 40B), phosphorylated SAPK/JNK (FIG. 40C) and phosphorylated p38 (FIG. 40D) were measured by ELISA. The results are means±SEM of two experiments (n=4) for MEK1 and ERK 1/2, one experiment for SAPK/JNK and p38 (n=2). ***p<0.001.

Turning to `COc1cc(-c2oc3cc(OC)c(OC)c(O)c3c(=O)c2O)ccc1O` [TTF, 3,5,4′-trihydroxy-6,7,3′-trimethoxyflavone], in data set [1], the “effect on LPS-elicited IL-6 secretion” value is reported as “markedly inhibited”. The “effect on ABAP-generated peroxyl radical (ROS) fluorescence” value in data set [2] is recorded as “moderated the increase in ROS-induced fluorescence”. In addition, the “cell viability in the cellular antioxidant activity assay” value in data set [2] (crystal violet, 20 h after ABAP) is reported as “cell viability was not affected”. Also, in data set [3], the “cytotoxicity to microglial cells” value was “not cytotoxic”.
Take `O=c1c(O)c(-c2ccc(O)c(O)c2)oc2cc(O)cc(O)c12` [quercetin, 3,3′,4′,5,7-Pentahydroxyflavone, reference compound]: the “effect on ABAP-generated peroxyl radical (ROS) fluorescence” value in data set [2] is reported as “similarly effective as TTF”.
For `C=C1CCC2=C(CO)C(=O)O[C@H]2/C=C(\C)[C@H](OC(C)=O)CC1=O` [achillolide A], the “effect on H2O2-induced phosphorylation of p38” value in data set [4] was “inhibitory effect”.
